Data published in publication PMC9638991, “Designed High-Redox Potential Laccases Exhibit High Functional Diversity” (ACS Catalysis, 2022).

Assays:
Assay in all cases: colorimetric oxidation kinetics, purified enzyme
Type in all cases: biochemical
Th3 [1] = molecular target: T1, Th3 (Trametes hirsuta, UniProt B2L9C1, N227E/S448D, form not given); details: optimal pH, O2 as co-substrate
T1 construct: gene Lac; secreted from S. cerevisiae (pJRoC30), purified fraction, about 56 kDa; wild type not expressible

OB-1 = molecular target: T2, OB-1 (basidiomycete PM1, UniProt Q12571); details: optimal pH; O2 as co-substrate
T2 construct: S. cerevisiae expression, purified

Th3 [2] = molecular target: T3, Th3 (Trametes hirsuta, UniProt B2L9C1, N227H/F478W, form not given); details: optimal pH; O2 as co-substrate
T3 construct: gene Lac; secreted from S. cerevisiae (pJRoC30), purified fraction, about 56 kDa; wild type not expressible

Th3 [3] = molecular target: T4, Th3 (Trametes hirsuta, UniProt B2L9C1); details: optimal pH 4, O2 as co-substrate
T4 construct: gene Lac; secreted from S. cerevisiae (pJRoC30), purified fraction, about 56 kDa; wild type not expressible

Th3 [4] = molecular target: T5, Th3 (Trametes hirsuta, UniProt B2L9C1, F286M/A414S, form not given); details: optimal pH 5; O2 as co-substrate
T5 construct: gene Lac

[5] = text prints 'for Th3.7' inside a sentence on Th3.10 (apparent misprint, check Table S4)

T1 sequence (B2L9C1 entry or part of it N227E/S448D, form open): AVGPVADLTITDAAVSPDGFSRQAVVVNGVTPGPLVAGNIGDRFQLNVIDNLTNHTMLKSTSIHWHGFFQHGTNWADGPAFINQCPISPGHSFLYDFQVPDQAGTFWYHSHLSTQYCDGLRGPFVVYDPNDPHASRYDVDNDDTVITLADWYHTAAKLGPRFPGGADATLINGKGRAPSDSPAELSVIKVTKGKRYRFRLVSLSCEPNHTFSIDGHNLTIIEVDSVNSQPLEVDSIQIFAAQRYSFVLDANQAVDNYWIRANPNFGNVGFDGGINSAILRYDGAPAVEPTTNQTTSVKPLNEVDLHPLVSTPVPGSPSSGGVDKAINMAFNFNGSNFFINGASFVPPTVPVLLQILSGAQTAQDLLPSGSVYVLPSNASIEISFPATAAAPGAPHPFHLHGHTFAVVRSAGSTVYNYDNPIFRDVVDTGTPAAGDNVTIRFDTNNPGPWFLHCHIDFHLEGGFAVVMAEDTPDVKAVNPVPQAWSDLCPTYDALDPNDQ
T2 sequence (Q12571 entry or part of it): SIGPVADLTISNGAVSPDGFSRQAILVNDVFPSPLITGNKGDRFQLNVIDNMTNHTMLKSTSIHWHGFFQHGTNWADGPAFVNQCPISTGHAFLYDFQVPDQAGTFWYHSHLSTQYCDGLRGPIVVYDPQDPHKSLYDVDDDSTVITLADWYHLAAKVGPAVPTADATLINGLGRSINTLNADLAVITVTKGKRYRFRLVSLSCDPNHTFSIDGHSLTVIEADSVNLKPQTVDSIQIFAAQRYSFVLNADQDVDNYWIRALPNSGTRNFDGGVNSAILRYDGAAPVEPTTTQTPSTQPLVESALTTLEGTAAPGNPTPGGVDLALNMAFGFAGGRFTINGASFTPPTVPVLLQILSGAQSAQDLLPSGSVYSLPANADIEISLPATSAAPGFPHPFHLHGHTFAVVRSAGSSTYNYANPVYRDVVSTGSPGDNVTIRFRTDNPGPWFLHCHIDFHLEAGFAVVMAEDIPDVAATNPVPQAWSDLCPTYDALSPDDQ
T3 sequence (B2L9C1 entry or part of it N227H/F478W, form open): as the sequence (B2L9C1 entry or part of it N227E/S448D, form open) above, with E206H, D427S, F457W counted along it
T4 sequence (B2L9C1 entry or part of it): as the sequence (B2L9C1 entry or part of it N227E/S448D, form open) above, with E206N, D427S counted along it
T5 sequence (B2L9C1 entry or part of it F286M/A414S, form open): as the sequence (B2L9C1 entry or part of it N227E/S448D, form open) above, with E206N, F265M, A393S, D427S counted along it

Row | Km (Th3 [1]; [5]) [µM] | Km (OB-1) [µM] | Km (Th3 [2]) [µM] | Km (Th3 [3]; purified fraction, values estimates) [µM] | Km (Th3 [1]) [µM] | Km (Th3 [4]) [µM] | Km (Th3 [3]) [µM] | Compound
1 | 17.1 | 165 ± 2 | 44 | 1280 | – | – | – | COc1cccc(OC)c1O [DMP, 2,6-dimethoxyphenol]
2 | – | 1070 ± 30 | – | – | 667 ± 36 | 555 ± 85 | 1790 ± 160 | COc1ccccc1O [GUA, guaiacol]
3 | 150 | 81 ± 15 | 185 | – | – | – | – | COc1cc(/C=C/C(=O)O)cc(OC)c1O [SA, sinapic acid]
